From ChEMBL document CHEMBL1759979, “Impact of aryloxy-linked quinazolines: a novel series of selective VEGFR-2 receptor tyrosine kinase inhibitors” (Bioorg Med Chem Lett, 2011)

Columns and labels:
HT-29 [1] = assay: Antiproliferative activity against human HT-29 cells after 72 hrs by MTS assay; assay type: functional; parameters: concentration or dose not given beside the values
MCF7 [2] = assay: Antiproliferative activity against human MCF7 cells after 72 hrs by MTS assay; assay type: functional; parameters: concentration or dose not given beside the values
[3] = Antiproliferative activity against human EAhy926 cells after 72 hrs by MTS assay; assay type: functional, EA.hy 926; parameters: concentration or dose not given beside the values
[4] = biological target: Epidermal growth factor receptor (Homo sapiens, UniProt P00533); assay: Inhibition of human EGFR-mediated poly(Glu4Tyr) phosphorylation after 1 hr
Chain of Epidermal growth factor receptor (P00533 whole entry): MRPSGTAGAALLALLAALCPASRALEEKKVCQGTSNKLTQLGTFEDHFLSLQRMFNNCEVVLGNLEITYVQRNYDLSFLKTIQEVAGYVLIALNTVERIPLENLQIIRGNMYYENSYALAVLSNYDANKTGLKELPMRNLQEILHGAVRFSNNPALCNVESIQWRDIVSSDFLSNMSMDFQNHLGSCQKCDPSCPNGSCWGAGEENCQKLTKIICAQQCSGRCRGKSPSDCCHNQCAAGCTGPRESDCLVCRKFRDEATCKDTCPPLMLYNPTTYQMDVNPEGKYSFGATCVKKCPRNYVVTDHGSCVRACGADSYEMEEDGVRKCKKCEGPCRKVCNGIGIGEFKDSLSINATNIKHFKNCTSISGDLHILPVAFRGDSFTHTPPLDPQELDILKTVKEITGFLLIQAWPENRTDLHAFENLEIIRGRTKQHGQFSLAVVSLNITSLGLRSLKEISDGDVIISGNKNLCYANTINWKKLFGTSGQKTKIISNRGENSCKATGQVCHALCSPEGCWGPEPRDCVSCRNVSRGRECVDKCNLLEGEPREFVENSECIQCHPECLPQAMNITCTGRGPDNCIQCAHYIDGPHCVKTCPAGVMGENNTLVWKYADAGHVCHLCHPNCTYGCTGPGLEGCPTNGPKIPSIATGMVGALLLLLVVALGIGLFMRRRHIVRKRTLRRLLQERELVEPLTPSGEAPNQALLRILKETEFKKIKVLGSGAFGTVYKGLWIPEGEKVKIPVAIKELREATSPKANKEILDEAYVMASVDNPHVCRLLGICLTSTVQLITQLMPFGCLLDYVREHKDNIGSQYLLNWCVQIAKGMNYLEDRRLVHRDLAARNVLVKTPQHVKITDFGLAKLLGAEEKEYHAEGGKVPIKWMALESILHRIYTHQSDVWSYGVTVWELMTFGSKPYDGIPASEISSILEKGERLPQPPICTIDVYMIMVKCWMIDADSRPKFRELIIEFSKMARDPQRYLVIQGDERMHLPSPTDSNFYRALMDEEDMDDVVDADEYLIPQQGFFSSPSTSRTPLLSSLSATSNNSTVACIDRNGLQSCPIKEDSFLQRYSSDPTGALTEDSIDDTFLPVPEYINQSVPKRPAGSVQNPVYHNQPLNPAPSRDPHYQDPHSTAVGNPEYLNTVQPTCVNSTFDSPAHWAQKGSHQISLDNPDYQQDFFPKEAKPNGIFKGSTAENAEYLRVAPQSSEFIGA

[5] = biological target: T1, Vascular endothelial growth factor receptor 2 (Homo sapiens, UniProt P35968); assay: Inhibition of recombinant human VEGFR-2-mediated poly(Glu4Tyr) phosphorylation after 1 hr
T1 sequence (P35968 whole entry): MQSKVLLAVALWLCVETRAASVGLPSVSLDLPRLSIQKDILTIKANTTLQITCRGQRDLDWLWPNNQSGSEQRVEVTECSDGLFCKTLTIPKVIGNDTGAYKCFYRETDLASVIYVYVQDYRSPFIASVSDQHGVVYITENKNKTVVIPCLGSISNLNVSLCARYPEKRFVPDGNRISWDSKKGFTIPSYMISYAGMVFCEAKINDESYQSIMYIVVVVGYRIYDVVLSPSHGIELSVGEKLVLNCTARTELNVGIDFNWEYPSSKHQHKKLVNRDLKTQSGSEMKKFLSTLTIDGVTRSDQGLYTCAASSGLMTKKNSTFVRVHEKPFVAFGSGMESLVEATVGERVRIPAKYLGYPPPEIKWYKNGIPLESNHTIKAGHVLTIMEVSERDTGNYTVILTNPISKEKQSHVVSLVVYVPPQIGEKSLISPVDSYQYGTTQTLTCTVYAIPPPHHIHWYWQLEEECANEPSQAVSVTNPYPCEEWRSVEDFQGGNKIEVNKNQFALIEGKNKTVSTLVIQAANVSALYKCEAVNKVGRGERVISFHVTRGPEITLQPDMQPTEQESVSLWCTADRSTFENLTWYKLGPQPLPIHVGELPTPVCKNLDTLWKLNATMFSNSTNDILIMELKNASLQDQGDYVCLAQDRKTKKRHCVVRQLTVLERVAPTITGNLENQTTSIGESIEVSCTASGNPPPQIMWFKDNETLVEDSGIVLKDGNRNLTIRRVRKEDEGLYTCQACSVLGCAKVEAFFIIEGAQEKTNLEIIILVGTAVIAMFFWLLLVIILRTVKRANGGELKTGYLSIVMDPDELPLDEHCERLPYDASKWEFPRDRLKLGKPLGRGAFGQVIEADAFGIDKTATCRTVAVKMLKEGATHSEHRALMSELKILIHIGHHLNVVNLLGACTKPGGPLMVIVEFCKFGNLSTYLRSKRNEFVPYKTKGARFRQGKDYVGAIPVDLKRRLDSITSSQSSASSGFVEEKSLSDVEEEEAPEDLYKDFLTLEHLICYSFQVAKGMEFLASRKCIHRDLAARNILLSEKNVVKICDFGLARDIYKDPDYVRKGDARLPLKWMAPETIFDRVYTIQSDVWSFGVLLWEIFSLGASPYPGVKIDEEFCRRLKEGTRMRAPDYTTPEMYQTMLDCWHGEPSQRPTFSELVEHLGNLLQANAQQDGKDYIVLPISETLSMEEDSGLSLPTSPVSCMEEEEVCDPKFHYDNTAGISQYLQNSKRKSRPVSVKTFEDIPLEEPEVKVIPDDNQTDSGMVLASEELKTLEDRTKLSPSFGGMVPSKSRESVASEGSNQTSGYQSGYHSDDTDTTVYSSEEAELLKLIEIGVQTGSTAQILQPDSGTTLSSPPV

PC-3 [6] = assay: Antiproliferative activity against human PC3 cells after 72 hrs by MTS assay; assay type: functional; parameters: concentration or dose not given beside the values
PC-3 [7] = assay: Antiproliferative activity against human PC3 cells at 10 uM after 72 hrs by MTS assay; assay type: functional, cell-based; conditions: PC-3, 72 h
HT-29 [8] = assay: Antiproliferative activity against human HT-29 cells at 10 uM after 72 hrs by MTS assay; assay type: functional, cell-based; conditions: HT-29, 72 h
MCF7 [9] = assay: Antiproliferative activity against human MCF7 cells at 10 uM after 72 hrs by MTS assay; conditions: MCF7, 72 h
[10] = Antiproliferative activity against human EAhy926 cells at 10 uM after 72 hrs by MTS assay; assay type: functional, cell-based; conditions: EA.hy 926, 72 h
[11] = biological target: T1, Vascular endothelial growth factor receptor 2; assay: Inhibition of KDR

Row | SMILES | Activity (HT-29 [1]) [%] | Activity (MCF7 [2]) [%] | Activity [3] [%] | IC50 [4] [µM] | IC50 [5] [µM] | Activity (PC-3 [6]) [%] | further results
1 | COc1cc2ncnc(Oc3ccc(NC(=O)Nc4ccccc4)cc3)c2cc1OC | 12 | 12 | 15 | > 10 | 0.06 | 23 | 
2 | COc1cc2ncnc(Oc3ccc(NC(=O)Nc4ccc(C)cc4)cc3)c2cc1OC | 17 | 23 | 42 | > 10 |  | 23 | 
3 | COc1cc2ncnc(Oc3ccc(NC(=O)NC4CCCCC4)cc3)c2cc1OC |  |  |  | > 10 |  |  | 
4 | COc1cc2ncnc(Oc3cccc(NC(=O)Nc4ccccc4)c3)c2cc1OC |  |  |  | > 10 |  |  | 
5 | COc1cc2ncnc(Oc3ccc(NC(=O)Nc4ccc(F)cc4F)cc3)c2cc1OC |  |  |  | > 10 |  |  | 
6 | COc1cc2ncnc(Oc3ccc(NC(=O)Nc4ccc(F)c(Cl)c4)cc3)c2cc1OC |  |  |  | > 10 |  |  | 
7 | COc1cc2ncnc(Nc3ccc(F)c(Cl)c3)c2cc1OC |  |  |  |  | 5.3 |  | IC50 (PC-3 [7]): 6.5 µM; IC50 (HT-29 [8]): 5.7 µM; IC50 (MCF7 [9]): 4.9 µM; IC50 [10]: 4.5 µM
8 | COc1cc2ncnc(N(C)c3cccc(NC(=O)Nc4ccccc4)c3)c2cc1OC | 0 | 0 | 0 |  |  | 0 | 
9 | CCOC(=O)Nc1ccc(Oc2ncnc3cc(OC)c(OC)cc23)cc1 |  |  |  | > 10 |  |  | 
10 | COc1cc2ncnc(Nc3ccc(Br)cc3F)c2cc1OC | 0 | 31 | 0 | 5.7 | 1.65 | 1 | 
11 | CCOC(=O)Nc1ccc(Nc2ncnc3cc(OC)c(OC)cc23)cc1 | 16 | 6 | 0 | > 10 | 5.6 | 12 | 
12 | COC(=O)Nc1ccc(Nc2ncnc3cc(OC)c(OC)cc23)cc1 | 10 | 27 | 0 |  | 5.8 | 2 | 
13 | COc1ccc(NC(=O)Nc2ccc(Nc3ncnc4cc(OC)c(OC)cc34)cc2)cc1 |  |  |  | > 10 |  |  | 
14 | COc1cc2ncnc(Nc3ccc(NC(C)=O)cc3)c2cc1OC | 0 | 12 | 0 | > 10 | > 10 | 2 | 
15 | COc1cc2ncnc(Oc3ccc(NC(=O)Nc4ccc5ccccc5c4)cc3)c2cc1OC |  |  |  | > 10 |  |  | 
16 | COC(=O)Nc1ccc(Oc2ncnc3cc(OC)c(OC)cc23)cc1 |  |  |  | > 10 |  |  | 
17 | COc1ccc(NC(=O)Nc2cccc(Oc3ncnc4cc(OC)c(OC)cc34)c2)cc1 |  |  |  | > 10 |  |  | 

Row | SMILES | Activity (HT-29 [1]) [%] | Activity (MCF7 [2]) [%] | Activity [3] [%] | IC50 [4] [µM] | IC50 [5] [µM] | Activity (PC-3 [6]) [%] | further results
18 | CCCCNC(=O)Nc1ccc(Oc2ncnc3cc(OC)c(OC)cc23)cc1 |  |  |  | > 10 |  |  | 
19 | COc1cc2ncnc(Oc3ccc(NC(C)=O)cc3)c2cc1OC | 0 | 5 | 3 |  |  | 0 | 
20 | COc1cc2ncnc(Oc3ccc(NC(=O)Nc4ccc(Br)cc4)cc3)c2cc1OC |  |  |  | > 10 |  |  | 
21 | COc1cc2ncnc(Oc3ccc(F)c(Cl)c3)c2cc1OC |  | 0 |  | > 10 | 9.5 | 5 | IC50 (HT-29 [8]): 4.07 µM
22 | COc1cc2ncnc(Oc3ccc(NC(=O)Nc4cccc5ccccc45)cc3)c2cc1OC | 17 | 8 | 9 | > 10 |  | 8 | 
23 | COc1ccc(NC(=O)Nc2cccc(N(C)c3ncnc4cc(OC)c(OC)cc34)c2)cc1 | 0 | 0 | 0 |  |  | 0 | 
24 | COc1cc2ncnc(Oc3ccc(Br)c(F)c3)c2cc1OC |  |  |  | 5.9 |  |  | 
25 | COc1cc2ncnc(N(C)c3ccc(NC(=O)Nc4ccc(F)c(Cl)c4)cc3)c2cc1OC |  | 35 | 29 | > 10 | > 10 |  | 
26 | COc1cc2ncnc(Oc3cccc(Br)c3)c2cc1OC | 6 | 0 | 0 | 7.6 |  | 27 | 
27 | COc1cc2ncnc(Nc3ccc(NC(=O)Nc4ccc(F)c(Cl)c4)cc3)c2cc1OC |  |  |  | > 10 | 4.3 |  | IC50 (PC-3 [7]): 9.4 µM; IC50 (HT-29 [8]): 6.2 µM; IC50 (MCF7 [9]): 7.7 µM; IC50 [10]: 5.3 µM
28 | COc1cc2/c(=N/c3ccc(Br)cc3F)nc[nH]c2cc1OCC1CCN(C)CC1 [VANDETANIB] |  | 26 |  |  |  | 33 | IC50 (HT-29 [8]): 4.2 µM; IC50 [10]: 5.1 µM
29 | COc1cc2ncnc(Nc3ccc(NC(=O)Nc4ccccc4)cc3)c2cc1OC |  |  |  | > 10 |  |  | 
30 | COc1ccc(NC(=O)Nc2ccc(Oc3ncnc4cc(OC)c(OC)cc34)cc2)cc1 | 9 | 0 | 24 | > 10 | 0.07 | 12 | IC50 [11]: 0.07 µM
31 | COc1cc2ncnc(N(C)c3ccc(Br)cc3F)c2cc1OC | 14 | 0 | 0 | > 10 | > 10 | 15 | 
32 | COc1cc2ncnc(Nc3cccc(Br)c3)c2cc1OC |  |  |  |  |  | 40 | IC50 [10]: 7.1 µM
33 | COc1cc2ncnc(N(C)c3ccc(F)c(Cl)c3)c2cc1OC |  | 0 | 46 | > 10 | > 10 | 22 | IC50 (HT-29 [8]): 5.2 µM
34 | COc1cc2ncnc(Oc3ccc(NC(=O)Nc4ccc(C(F)(F)F)cc4)cc3)c2cc1OC |  |  |  | > 10 |  |  | 
